Source: patent publication US20100285957A1, “THIAZOLYLOXYPHENYLAMIDINES OR THIADIAZOLYLOXYPHENYLAMIDINES AND THEIR USE AS FUNGICIDES” (Bayer CropScience AG, priority 2007, published 2010)
Where two headings read alike, the source gives them in different places.

Assays:
[1] = physchem
[2] = test system: Sphaerotheca fuliginea; assay: Sphaerotheca test (cucumber)/protective; assay type: in vivo; settings: Podosphaera fuliginea, 168 h, 100 ppm active substance, protective, evaluation 7 days after inoculation, read-out: degree of effectiveness
Procedure: Sphaerotheca Test (Cucumber)/Protective [table] To prepare a suitable active substance composition, 1 part by weight of active substance is mixed with the given amounts of solvents and emulsifier and the concentrate is diluted to the desired concentration using water. For the testing of protective effectiveness, young plants are sprayed with the active substance composition in the application rate given. After the spray coating has been dried on, the plants are inoculated with an aqueous suspension of spores of Sphaerotheca fuliginea. The plants are then placed in a greenhouse at approximately 23° C. and a relative humidity of approximately 70%. Evaluation is carried out 7 days after the inoculation. In this connection, 0% means a degree of effectiveness corresponding to that of the control, while a degree of effectiveness of 100% means that no infestation is observed.

[3] = test system: Pyrenophora teres; assay: Pyrenophora teres test (barley)/protective; assay type: in vivo; settings: 500 ppm active substance, protective, evaluation 7-9 days after inoculation, read-out: degree of effectiveness
Procedure: Pyrenophora teres Test (Barley)/Protective
(§1) To prepare a suitable active substance composition, 1 part by weight of active substance is mixed with the given amounts of solvent and emulsifier and the concentrate is diluted to the desired concentration using water.
For the testing of protective effectiveness, young barley plants are sprayed with the active substance composition in the application rate given. 1 day after the treatment, the plants are inoculated with an aqueous suspension of the spores of Pyrenophora teres and then remain at 100% relative humidity and 20° C. for 48 h. Subsequently, the plants are placed in a greenhouse at 80% relative humidity and a temperature of 20° C.
Evaluation is carried out 7-9 days after the inoculation. In this connection, 0% means a degree of effectiveness corresponding to that of the control, while a degree of effectiveness of 100% means that no infestation is observed.

[4] = test system: Blumeria graminis f.sp. hordei; assay: Blumeria graminis test (barley)/protective; assay type: in vivo; settings: 168 h, 1000 ppm active substance, protective, evaluation 7 days after inoculation, read-out: degree of effectiveness
Procedure: Blumeria graminis Test (Barley)/Protective
as §1
For the testing of protective effectiveness, young plants are sprayed with the active substance composition in the application rate given.
After the spray coating has been dried on, the plants are dusted with spores of Blumeria graminis f.sp. hordei.
The plants are placed in a greenhouse at a temperature of approximately 20° C. and a relative humidity of approximately 80%, in order to encourage the development of mildew pustules.
Evaluation is carried out 7 days after the inoculation. In this connection, 0% means a degree of effectiveness corresponding to that of the control, while a degree of effectiveness of 100% means that no infestation is observed.

[5] = test system: Puccinia recondita var. tritici; assay: Puccinia test (wheat)/protective; assay type: in vivo; settings: 240 h, 1000 ppm active substance, protective, evaluation 10 days after inoculation, read-out: degree of effectiveness
Procedure: Puccinia Test (Wheat)/Protective
as §1
For the testing of protective effectiveness, young plants are sprayed with the active substance composition in the application rate given. After the spray coating has been dried on, the plants are sprayed with a suspension of the conidia of Puccinia recondita var. tritici. The plants remain in an incubation chamber at 20° C. and 100% relative humidity for 48 hours.
The plants are then placed in a greenhouse at a temperature of approximately 20° C. and a relative humidity of 80%, in order to encourage the development of rust pustules.
Evaluation is carried out 10 days after the inoculation. In this connection, 0% means a degree of effectiveness corresponding to that of the control, while a degree of effectiveness of 100% means that no infestation is observed.

[6] = test system: Uromyces appendiculatus; assay: Uromyces test (beans)/protective; assay type: in vivo; settings: 240 h, 100 ppm active substance, protective, evaluation 10 days after inoculation, read-out: degree of effectiveness
Procedure: Uromyces Test (Beans)/Protective [table] To prepare a suitable active substance composition, 1 part by weight of active substance is mixed with the given amounts of solvents and emulsifier and the concentrate is diluted to the desired concentration using water. For the testing of protective effectiveness, young plants are sprayed with the active substance composition in the application rate given. After the spray coating has been dried on, the plants are inoculated with an aqueous suspension of the spores of the bean rust pathogen Uromyces appendiculatus and then remain in an incubation chamber at approximately 20° C. and 100% relative humidity for 1 day. The plants are then placed in a greenhouse at approximately 21° C. and a relative humidity of approximately 90%. Evaluation is carried out 10 days after the inoculation. In this connection, 0% means a degree of effectiveness corresponding to that of the control, while a degree of effectiveness of 100% means that no infestation is observed.

[7] = test system: Alternaria solani; assay: Alternaria test (tomato)/protective; assay type: in vivo; settings: 168 h, 500 ppm active substance, protective, evaluation 7 days after inoculation, read-out: degree of effectiveness
Procedure: Alternaria Test (Tomato)/Protective [table] To prepare a suitable active substance composition, 1 part by weight of active substance is mixed with the given amounts of solvent and emulsifier and the concentrate is diluted to the desired concentration using water. For the testing of protective effectiveness, young tomato plants are sprayed with the active substance composition in the application rate given. 1 day after the treatment, the plants are inoculated with a suspension of the spores of Alternaria solani and then stand at 100% relative humidity and 20° C. for 24 h. Subsequently, the plants stand at 96% relative humidity and a temperature of 20° C. Evaluation is carried out 7 days after the inoculation. In this connection, 0% means a degree of effectiveness corresponding to that of the control, while a degree of effectiveness of 100% means that no infestation is observed.

Row | Compound | logP ([1]; pH 2.3) | pest or weed control at 100 ppm [2] [%] | pest or weed control at 500 ppm [3] [%] | pest or weed control at 1000 ppm [4] [%] | pest or weed control at 1000 ppm [5] [%] | pest or weed control at 100 ppm [6] [%] | pest or weed control at 500 ppm [7] [%] | logP [1]
1 | Cc1cc(Oc2nc(C3(C)CC3)ns2)c(C)cc1N [2,5-Dimethyl-4-{[3-(1-methylcyclopropyl)-1,2,4-thiadiazol-5-yl]oxy}aniline] | 3.08 |  |  |  |  |  |  | 
2 | Cc1cc(Oc2nc(C3(Cl)CC3)ns2)c(C)cc1/N=C/N1CCCCC1 [Compound 13, 4-{[3-(1-Chlorocyclopropyl)-1,2,4-thiadiazol-5-yl]oxy}-2,5-dimethyl-N-[(1E)-piperidin-1-yl-methylidene]aniline] | 1.76 | ≥ 70 | ≥ 70 | ≥ 70 | ≥ 70 |  |  | 
3 | Cc1cc(Oc2nc(C3CC3C)ns2)c(C)cc1/N=C/N1CCCCC1 (stereo not drawn) [Compound 16, 2,5-Dimethyl-4-{[3-(2-methylcyclopropyl)-1,2,4-thiadiazol-5-yl]oxy}-N-[(1E)-piperidin-1-ylmethylidene]aniline] | 1.78 | ≥ 70 | ≥ 70 | ≥ 70 | ≥ 70 | ≥ 70 | ≥ 70 | 
4 | Cc1cc(Oc2nc(C3(Cl)CC3)ns2)c(C)cc1N=CN(C)C(C)C [Compound 18, N′-(4-{[3-(1-Chlorocyclopropyl)-1,2,4-thiadiazol-5-yl]oxy}-2,5-dimethylphenyl)-N-methyl-N-(1-methylethyl)imidoformamide] | 2.01 | ≥ 70 | ≥ 70 | ≥ 70 | ≥ 70 | ≥ 70 | ≥ 70 | 
5 | Cc1cc(Oc2nc(C3(Cl)CC3)ns2)c(C)cc1N=CN(C)C [Compound 19, N′-(4-{[3-(1-Chlorocyclopropyl)-1,2,4-thiadiazol-5-yl]oxy}-2,5-dimethylphenyl)-N,N-dimethylimidoformamide] | 1.52 | ≥ 70 | ≥ 70 | ≥ 70 | ≥ 70 | ≥ 70 | ≥ 70 | 
6 | Cc1cc(Oc2nc(C3CC3C)ns2)c(C)cc1N=CN(C)C (stereo not drawn) [Compound 20, N′-(2,5-Dimethyl-4-{[3-(2-methylcyclopropyl)-1,2,4-thiadiazol-5-yl]oxy}phenyl)-N,N-di-methylimidoformamide] | 1.62 | ≥ 70 | ≥ 70 | ≥ 70 | ≥ 70 | ≥ 70 | ≥ 70 | 
7 | CCN(C)C=Nc1cc(C)c(Oc2nc(C3(C)CC3)cs2)cc1C [Compound 22, N′-(2,5-Dimethyl-4-{[4-(1-methylcyclopropyl)-1,3-thiazol-2-yl]oxy}phenyl)-N-ethyl-N-methylimidoformamide] | 1.86 |  |  | ≥ 70 | ≥ 70 |  | ≥ 70 | 4.96
8 | Cc1cc(Oc2nc(C3(C)CC3)c(Cl)s2)c(C)cc1/N=C/N1CCCCC1 [Compound 24, 4-{[5-Chloro-4-(1-methylcyclopropyl)-1,3-thiazol-2-yl]oxy}-2,5-dimethyl-N-[(1E)-piperidin-1-ylmethylidene]aniline] | 2.34 | ≥ 70 | ≥ 70 | ≥ 70 | ≥ 70 | ≥ 70 | ≥ 70 | 
9 | Cc1cc(Oc2nc(C3(C)CC3(Cl)Cl)ns2)c(C)cc1/N=C/N1CCCCC1 (stereo not drawn) [Compound 26, 4-{[3-(2,2-Dichloro-1-methylcyclopropyl)-1,2,4-thiadiazol-5-yl]oxy}-2,5-dimethyl-N-[(1E)-piperidin-1-ylmethylidene]aniline] | 2.08 | ≥ 70 | ≥ 70 |  |  | ≥ 70 | ≥ 70 | 
10 | CCC1(c2nsc(Oc3cc(C)c(/N=C/N4CCCCC4)cc3C)n2)C(C)C1(Cl)Cl (stereo not drawn) [Compound 28, 4-{[3-(2,2-Dichloro-1-ethyl-3-methylcyclopropyl)-1,2,4-thiadiazol-5-yl]oxy}-2,5-dimethyl-N-[(1E)-piperidin-1-ylmethylidene]aniline] | 2.35 | ≥ 70 | ≥ 70 |  |  | ≥ 70 |  | 
11 | Cc1cc(Oc2nc(C3(C)CC3)ns2)c(C)cc1/N=C/N1CCC1 [Compound 31, N-[(1E)-Azetidin-1-ylmethylidene]-2,5-dimethyl-4-{[3-(1-methylcyclopropyl)-1,2,4-thiadiazol-5-yl]oxy}aniline] | 1.6 |  |  | ≥ 70 | ≥ 70 |  |  | 
12 | Cc1cc(Oc2nc(C3CC3C)ns2)c(C)cc1/N=C/N1CCC1 (stereo not drawn) [Compound 32, N-[(1E)-Azetidin-1-ylmethylidene]-2,5-dimethyl-4-{[3-(2-methylcyclopropyl)-1,2,4-thiadiazol-5-yl]oxy}aniline] | 1.96 |  |  |  |  |  |  | 
13 | CCN(C)C=Nc1cc(Cl)c(Oc2nc(C3(Cl)CC3)ns2)cc1C [Compound 33, N′-(5-Chloro-4-{[3-(1-chlorocyclopropyl)-1,2,4-thiadiazol-5-yl]oxy}-2-methylphenyl)-N-ethyl-N-methylimidoformamide] | 1.72 | ≥ 70 | ≥ 70 |  |  |  | ≥ 70 | 
14 | Cc1cc(Oc2nc(C3(Cl)CC3)ns2)c(Cl)cc1/N=C/N1CCCCC1 [Compound 34, 5-Chloro-4-{[3-(1-chlorocyclopropyl)-1,2,4-thiadiazol-5-yl]oxy}-2-methyl-N-[(1E)-piperidin-1-ylmethylidene]aniline] | 1.98 | ≥ 70 | ≥ 70 |  |  |  |  | 
